Laboratory results from US10022376B2 (Pfizer Inc., priority 2014, dated 2018).
Where a name gives a salt, the structure may show the parent alone.

Tests used:
[1] = test system: rhIFNγ stimulated STAT-3 phosphorylation in the A549 human epithelial cell line; test: A549 Cell Assay: Inhibition of pSTAT3; assay type: cell-based; conditions: A549 cells
Method in brief: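 Percent inhibition of STAT3 Tyr705 phosphorylation was measured by MSD immunoassay of cell lysates. A549 cells were given compound for 1 h at 37° C (final 0.3 nM to 10 μM, 0.1% DMSO, in 0.2% BSA DMEM), followed by 30 min of rhIFNγ stimulation at 20 ng/mL final. Unstimulated DMSO wells served as background.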

[2] = biological target: TYK2 (Homo sapiens (Human), UniProt P29597); test: JAK Caliper Enzyme Assay at 1 mM ATP (TYK2); assay type: biochemical; conditions: Caliper assay at 1 mM ATP
TYK2, sequence (P29597 whole entry): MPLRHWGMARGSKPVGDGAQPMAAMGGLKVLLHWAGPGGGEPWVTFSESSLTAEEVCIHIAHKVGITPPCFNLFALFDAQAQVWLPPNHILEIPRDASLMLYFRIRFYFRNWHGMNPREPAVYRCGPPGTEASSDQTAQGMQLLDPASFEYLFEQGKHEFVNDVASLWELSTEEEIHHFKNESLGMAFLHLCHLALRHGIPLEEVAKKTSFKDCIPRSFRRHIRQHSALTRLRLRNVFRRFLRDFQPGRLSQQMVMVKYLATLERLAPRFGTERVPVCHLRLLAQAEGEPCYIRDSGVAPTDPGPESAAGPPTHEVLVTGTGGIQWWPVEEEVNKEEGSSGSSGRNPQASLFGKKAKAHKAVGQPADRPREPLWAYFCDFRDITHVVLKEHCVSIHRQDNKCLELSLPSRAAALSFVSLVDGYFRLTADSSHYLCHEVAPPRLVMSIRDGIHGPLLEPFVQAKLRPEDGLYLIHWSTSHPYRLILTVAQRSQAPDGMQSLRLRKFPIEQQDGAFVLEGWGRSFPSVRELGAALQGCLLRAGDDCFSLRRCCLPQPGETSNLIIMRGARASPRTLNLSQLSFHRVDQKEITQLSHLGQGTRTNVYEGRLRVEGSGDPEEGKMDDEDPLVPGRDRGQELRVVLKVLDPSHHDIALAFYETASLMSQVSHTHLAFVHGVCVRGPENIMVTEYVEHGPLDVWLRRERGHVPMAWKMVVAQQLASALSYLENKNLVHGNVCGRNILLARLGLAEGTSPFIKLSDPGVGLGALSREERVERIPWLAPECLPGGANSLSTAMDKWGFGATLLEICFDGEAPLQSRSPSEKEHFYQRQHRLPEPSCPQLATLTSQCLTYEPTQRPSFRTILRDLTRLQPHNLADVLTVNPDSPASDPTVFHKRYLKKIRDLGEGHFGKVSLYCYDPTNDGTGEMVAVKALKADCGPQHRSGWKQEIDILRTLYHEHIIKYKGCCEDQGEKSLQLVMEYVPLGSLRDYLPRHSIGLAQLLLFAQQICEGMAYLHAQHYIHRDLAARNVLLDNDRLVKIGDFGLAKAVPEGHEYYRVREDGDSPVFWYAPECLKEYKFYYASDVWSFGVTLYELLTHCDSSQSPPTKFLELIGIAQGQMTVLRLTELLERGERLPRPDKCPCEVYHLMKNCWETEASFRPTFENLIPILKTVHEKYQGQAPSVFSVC

[3] = biological target: JAK1 (Homo sapiens (Human), UniProt P23458); test: JAK Caliper Enzyme Assay at 1 mM ATP (JAK1); assay type: biochemical; conditions: Caliper assay at 1 mM ATP
JAK1, sequence (P23458 whole entry): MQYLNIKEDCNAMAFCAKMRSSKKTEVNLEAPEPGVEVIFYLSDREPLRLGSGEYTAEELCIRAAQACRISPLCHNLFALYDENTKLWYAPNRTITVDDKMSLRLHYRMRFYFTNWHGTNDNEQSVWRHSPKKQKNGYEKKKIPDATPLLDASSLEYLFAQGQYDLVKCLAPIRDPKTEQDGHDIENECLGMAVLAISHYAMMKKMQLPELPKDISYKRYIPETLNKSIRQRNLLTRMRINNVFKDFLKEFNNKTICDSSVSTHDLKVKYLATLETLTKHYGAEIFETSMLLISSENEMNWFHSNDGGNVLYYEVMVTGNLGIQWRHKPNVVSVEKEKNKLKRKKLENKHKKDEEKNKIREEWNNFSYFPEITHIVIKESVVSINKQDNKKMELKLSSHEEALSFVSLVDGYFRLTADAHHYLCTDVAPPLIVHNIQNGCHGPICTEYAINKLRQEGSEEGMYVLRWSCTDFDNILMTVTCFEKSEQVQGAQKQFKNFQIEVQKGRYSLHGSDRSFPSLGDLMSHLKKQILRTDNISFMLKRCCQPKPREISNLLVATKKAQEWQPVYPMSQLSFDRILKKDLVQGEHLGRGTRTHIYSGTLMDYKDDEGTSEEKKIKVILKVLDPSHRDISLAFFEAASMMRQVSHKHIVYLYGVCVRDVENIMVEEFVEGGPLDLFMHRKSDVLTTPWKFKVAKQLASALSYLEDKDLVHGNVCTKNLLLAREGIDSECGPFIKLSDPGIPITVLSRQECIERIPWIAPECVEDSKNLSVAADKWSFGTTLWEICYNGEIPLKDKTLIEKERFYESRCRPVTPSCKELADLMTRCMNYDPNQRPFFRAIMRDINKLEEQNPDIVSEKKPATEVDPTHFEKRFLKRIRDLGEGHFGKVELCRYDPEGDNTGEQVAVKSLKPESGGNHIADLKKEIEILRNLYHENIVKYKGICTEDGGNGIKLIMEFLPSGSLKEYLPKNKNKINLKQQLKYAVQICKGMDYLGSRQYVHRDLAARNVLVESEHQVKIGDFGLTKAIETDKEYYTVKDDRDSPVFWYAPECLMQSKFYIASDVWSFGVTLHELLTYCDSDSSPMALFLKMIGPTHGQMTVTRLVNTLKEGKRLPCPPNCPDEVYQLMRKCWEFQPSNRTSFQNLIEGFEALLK

[4] = biological target: JAK3 (Homo sapiens (Human), UniProt P52333); test: JAK Caliper Enzyme Assay at 1 mM ATP (JAK3); assay type: biochemical; conditions: Caliper assay at 1 mM ATP
JAK3, sequence (P52333 whole entry): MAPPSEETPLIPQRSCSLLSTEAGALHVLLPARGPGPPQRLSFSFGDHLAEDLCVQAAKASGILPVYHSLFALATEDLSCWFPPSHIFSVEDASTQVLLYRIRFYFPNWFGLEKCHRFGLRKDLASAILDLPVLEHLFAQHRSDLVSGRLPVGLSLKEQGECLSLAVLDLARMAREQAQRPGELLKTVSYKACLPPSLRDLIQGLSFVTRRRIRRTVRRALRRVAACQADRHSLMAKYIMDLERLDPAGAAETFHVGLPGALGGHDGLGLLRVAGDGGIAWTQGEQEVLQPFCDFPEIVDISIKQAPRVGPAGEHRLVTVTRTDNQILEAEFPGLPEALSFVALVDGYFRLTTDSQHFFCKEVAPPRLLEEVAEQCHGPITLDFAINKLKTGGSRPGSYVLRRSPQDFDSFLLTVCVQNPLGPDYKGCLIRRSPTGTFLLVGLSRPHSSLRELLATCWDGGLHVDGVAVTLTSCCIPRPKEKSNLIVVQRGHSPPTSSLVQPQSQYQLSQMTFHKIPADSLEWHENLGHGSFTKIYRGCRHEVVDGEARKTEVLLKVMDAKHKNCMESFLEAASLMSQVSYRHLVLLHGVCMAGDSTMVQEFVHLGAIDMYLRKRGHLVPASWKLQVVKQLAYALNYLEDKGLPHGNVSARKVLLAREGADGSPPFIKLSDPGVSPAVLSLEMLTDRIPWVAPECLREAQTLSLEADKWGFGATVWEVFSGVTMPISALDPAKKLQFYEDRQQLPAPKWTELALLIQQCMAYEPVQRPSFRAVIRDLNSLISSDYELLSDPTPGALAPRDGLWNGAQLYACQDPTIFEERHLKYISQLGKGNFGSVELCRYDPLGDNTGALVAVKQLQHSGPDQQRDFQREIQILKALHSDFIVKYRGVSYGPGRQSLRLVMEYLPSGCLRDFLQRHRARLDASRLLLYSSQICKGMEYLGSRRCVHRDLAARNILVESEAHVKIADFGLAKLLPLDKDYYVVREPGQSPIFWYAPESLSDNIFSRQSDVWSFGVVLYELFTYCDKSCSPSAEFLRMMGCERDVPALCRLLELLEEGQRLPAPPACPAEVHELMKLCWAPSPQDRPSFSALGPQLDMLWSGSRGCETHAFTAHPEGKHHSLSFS

[5] = biological target: JAK2 (Homo sapiens (Human), UniProt O60674); test: JAK Caliper Enzyme Assay at 1 mM ATP (JAK2); assay type: biochemical; conditions: Caliper assay at 1 mM ATP
JAK2, sequence (O60674 whole entry): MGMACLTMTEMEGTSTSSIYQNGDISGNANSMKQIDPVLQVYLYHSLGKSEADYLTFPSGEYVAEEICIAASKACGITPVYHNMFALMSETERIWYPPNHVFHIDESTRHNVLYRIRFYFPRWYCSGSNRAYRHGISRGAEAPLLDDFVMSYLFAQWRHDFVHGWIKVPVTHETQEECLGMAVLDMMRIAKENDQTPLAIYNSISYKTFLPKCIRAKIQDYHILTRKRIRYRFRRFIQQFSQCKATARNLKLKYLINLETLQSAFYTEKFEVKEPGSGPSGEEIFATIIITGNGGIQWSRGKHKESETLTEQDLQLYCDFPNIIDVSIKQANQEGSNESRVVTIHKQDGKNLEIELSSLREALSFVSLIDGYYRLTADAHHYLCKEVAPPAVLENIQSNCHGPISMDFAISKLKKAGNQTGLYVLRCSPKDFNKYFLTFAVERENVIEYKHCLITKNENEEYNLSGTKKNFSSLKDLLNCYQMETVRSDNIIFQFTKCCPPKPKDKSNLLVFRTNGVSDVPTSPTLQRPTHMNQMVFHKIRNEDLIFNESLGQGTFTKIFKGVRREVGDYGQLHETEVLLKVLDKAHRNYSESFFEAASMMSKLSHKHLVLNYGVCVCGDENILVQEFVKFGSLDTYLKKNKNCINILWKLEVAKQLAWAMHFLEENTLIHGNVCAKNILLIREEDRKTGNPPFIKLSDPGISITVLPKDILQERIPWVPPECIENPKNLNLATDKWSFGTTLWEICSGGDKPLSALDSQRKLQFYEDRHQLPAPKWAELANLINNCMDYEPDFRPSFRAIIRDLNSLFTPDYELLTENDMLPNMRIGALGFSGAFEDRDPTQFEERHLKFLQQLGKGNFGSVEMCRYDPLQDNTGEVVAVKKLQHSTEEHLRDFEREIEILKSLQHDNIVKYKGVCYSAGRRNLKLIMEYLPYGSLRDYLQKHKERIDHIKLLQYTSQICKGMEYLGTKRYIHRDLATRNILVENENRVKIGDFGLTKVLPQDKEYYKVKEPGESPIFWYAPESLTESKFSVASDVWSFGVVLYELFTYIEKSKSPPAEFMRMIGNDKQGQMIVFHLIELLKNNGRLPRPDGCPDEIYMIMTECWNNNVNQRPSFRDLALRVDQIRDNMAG

SMILES	IC50 ([1]; Homo sapiens) [nM]	IC50 [2] [nM]	IC50 [3] [nM]	IC50 [4] [nM]	IC50 [5] [nM]	IC50 [1] [nM]
CCc1cc(O)c(F)cc1-c1cc2[nH]ncc2c(N(CCc2ccc(NS(C)(=O)=O)cc2)Cc2ccccc2N(C)S(C)(=O)=O)n1 [Example 130, N-[2-({[6-(2-ethyl-5-fluoro-4-hydroxyphenyl)-1H-pyrazolo[4,3-c]pyridin-4-yl](2-{4-[(methylsulfonyl)amino]phenyl}ethyl)amino}methyl)phenyl]-N-methylmethanesulfonamide hydrochloride]	729	194	43.8	1360	–	–
CNC(=O)c1n[nH]c2cc(-c3cc(F)c(O)cc3CC(F)(F)F)nc(NCc3cc(F)ccc3N(C)S(C)(=O)=O)c12 [Example 14, 6-[5-fluoro-4-hydroxy-2-(2,2,2-trifluoroethyl)phenyl]-4-({5-fluoro-2-[methyl(methylsulfonyl)amino]benzyl}amino)-N-methyl-1H-pyrazolo[4,3-c]pyridine-3-carboxamide]	20.7	43.2	4.2	99.7	20.5	–
CNC(=O)c1n[nH]c2cc(-c3cc(F)c(O)cc3CC(F)(F)F)nc(NCc3c(F)cccc3N(C)S(C)(=O)=O)c12 [Example 18, 6-[5-fluoro-4-hydroxy-2-(2,2,2-trifluoroethyl)phenyl]-4-({2-fluoro-6-[methyl(methylsulfonyl)amino]benzyl}amino)-N-methyl-1H-pyrazolo[4,3-c]pyridine-3-carboxamide]	97	31	4	73	–	–
CNC(=O)c1n[nH]c2cc(-c3cc(F)c(O)cc3CC(F)(F)F)nc(NCc3cc(O)ccc3N(C)S(=O)(=O)c3ccccc3)c12 [Example 35, 6-[5-fluoro-4-hydroxy-2-(2,2,2-trifluoroethyl)phenyl]-4-({5-hydroxy-2-[methyl(phenylsulfonyl)amino]benzyl}amino)-N-methyl-1H-pyrazolo[4,3-c]pyridine-3-carboxamide]	437	256	39.9	817	249	–
CN(c1ccccc1CNc1nc(-c2cc(F)c(O)cc2CC(F)(F)F)cc2[nH]nc(C(N)=O)c12)S(=O)(=O)c1ccccc1 [Example 26, 6-[5-fluoro-4-hydroxy-2-(2,2,2-trifluoroethyl)phenyl]-4-({2-[methyl(phenylsulfonyl)amino]benzyl}amino)-1H-pyrazolo[4,3-c]pyridine-3-carboxamide]	124	218	19.9	293	91.1	–
CCS(=O)(=O)N(C)c1ccccc1CNc1nc(-c2cc(F)c(O)cc2CC(F)(F)F)cc2[nH]nc(C(=O)NC)c12 [Example 13, 4-({2-[(ethylsulfonyl)(methyl)amino]benzyl}amino)-6-[5-fluoro-4-hydroxy-2-(2,2,2-trifluoroethyl)phenyl]-N-methyl-1H-pyrazolo[4,3-c]pyridine-3-carboxamide]	96.7	35.7	5.3	118	26.6	–
CNC(=O)c1n[nH]c2cc(-c3cc(F)c(O)cc3CC(F)(F)F)nc(NCc3ccc(O)cc3N(C)S(C)(=O)=O)c12 [Example 33, 6-[5-fluoro-4-hydroxy-2-(2,2,2-trifluoroethyl)phenyl]-4-({4-hydroxy-2-[methyl(methylsulfonyl)amino]benzyl}amino)-N-methyl-1H-pyrazolo[4,3-c]pyridine-3-carboxamide]	490	282	5.7	75.2	25	–
CCN(c1ccccc1CNc1nc(-c2cc(F)c(O)cc2CC(F)(F)F)cc2[nH]nc(C(=O)NC)c12)S(C)(=O)=O [Example 12, 4-({2-[ethyl(methylsulfonyl)amino]benzyl}amino)-6-[5-fluoro-4-hydroxy-2-(2,2,2-trifluoroethyl)phenyl]-N-methyl-1H-pyrazolo[4,3-c]pyridine-3-carboxamide]	44.9	24.8	6.4	121	31.5	–
CCc1cc(O)c(F)cc1-c1cc2[nH]nc(C(=O)NC)c2c(NCc2ccccc2N(CC)S(C)(=O)=O)n1 [Example 9, 6-(2-ethyl-5-fluoro-4-hydroxyphenyl)-4-({2-[ethyl(methylsulfonyl)amino]benzyl}amino)-N-methyl-1H-pyrazolo[4,3-c]pyridine-3-carboxamide]	14.9	7.2	1.7	60	10.8	–
CCc1cc(O)c(F)cc1-c1cc2[nH]nc(C(=O)NC)c2c(NCc2ccccc2N(C)S(=O)(=O)c2ccccc2)n1 [Example 22, 6-(2-ethyl-5-fluoro-4-hydroxyphenyl)-N-methyl-4-({2-[methyl(phenylsulfonyl)amino]benzyl}amino)-1H-pyrazolo[4,3-c]pyridine-3-carboxamide]	52.8	59.1	17.5	359	81.3	–
CCc1cc(O)c(F)cc1-c1cc2[nH]ncc2c(NCc2ccccc2N(CC)S(C)(=O)=O)n1 [Example 138, N-ethyl-N-[2-({[6-(2-ethyl-5-fluoro-4-hydroxyphenyl)-1H-pyrazolo[4,3-c]pyridin-4-yl]amino}-methyl)phenyl]methanesulfonamide]	5.4	4.8	–	14.2	2.6	–
Cc1cnc(N(C)S(C)(=O)=O)c(CNc2nc(-c3cc(F)c(O)cc3CC(F)(F)F)cc3[nH]nc(C(N)=O)c23)c1 [Example 86, 6-(5-fluoro-4-hydroxy-2-(2,2,2-trifluoroethyl)phenyl)-4-(((5-methyl-2-(N-methylmethylsulfonamido)pyridin-3-yl)methyl)amino)-1H-pyrazolo[4,3-c]pyridine-3-carboxamide]	425	4820	38.4	81.7	110	–
CCc1cc(O)c(F)cc1-c1cc2[nH]nc(C(=O)NC)c2c(NCc2cc(C)ccc2N(C)S(C)(=O)=O)n1 [Example 21, 6-(2-ethyl-5-fluoro-4-hydroxyphenyl)-N-methyl-4-({5-methyl-2-[methyl(methylsulfonyl)amino]benzyl}amino)-1H-pyrazolo[4,3-c]pyridine-3-carboxamide]	35.6	11.4	2.7	67.9	13.2	–
CCc1cc(O)c(F)cc1-c1cc2[nH]nc(C(=O)NC)c2c(NCCc2ccc(NS(=O)(=O)c3ccccc3)cc2)n1 [Example 23, 6-(2-ethyl-5-fluoro-4-hydroxyphenyl)-N-methyl-4-[(2-{4-[(phenylsulfonyl)amino]phenyl}ethyl)amino]-1H-pyrazolo[4,3-c]pyridine-3-carboxamide]	51.4	83.2	5.8	111	25.7	–
CCc1cc(O)c(F)cc1-c1cc2[nH]nc(C(=O)NC)c2c(NCC2CCCC2)n1 [Example 10, 4-[(cyclopentylmethyl)amino]-6-(2-ethyl-5-fluoro-4-hydroxyphenyl)-N-methyl-1H-pyrazolo[4,3-c]pyridine-3-carboxamide]	26	17.9	4.7	93.1	19	–
CNC(=O)c1n[nH]c2cc(-c3cc(F)c(O)cc3CC(F)(F)F)nc(NCc3ccccc3N(CCO)S(C)(=O)=O)c12 [Example 24, 6-[5-fluoro-4-hydroxy-2-(2,2,2-trifluoroethyl)phenyl]-4-({2-[(2-hydroxyethyl)(methylsulfonyl)amino]benzyl}amino)-N-methyl-1H-pyrazolo[4,3-c]pyridine-3-carboxamide]	226	29.9	2.9	69.6	16.5	–
CCc1cc(O)ccc1-c1cc2[nH]ncc2c(N2CCC(S(=O)(=O)N(C)C)C2)n1 (racemic) [Example 126, 1-[6-(2-ethyl-4-hydroxyphenyl)-1H-pyrazolo[4,3-c]pyridin-4-yl]-N, N-dimethylpyrrolidine-3-sulfonamide (racemic)]	–	668	8.1	35.1	23.5	–
CNC(=O)c1n[nH]c2cc(-c3cc(F)c(O)cc3CC(F)(F)F)nc(NCc3cc(O)ccc3N(C)S(C)(=O)=O)c12 [Example 50]	–	10.5	–	47.4	10.7	321
CNC(=O)c1n[nH]c2cc(-c3cc(F)c(O)cc3CC(F)(F)F)nc(NCc3cc(O)ccc3N(C)S(=O)(=O)c3cccnc3)c12 [Example 54, 6-[5-fluoro-4-hydroxy-2-(2,2,2-trifluoroethyl)phenyl]-4-({5-hydroxy-2-[methyl(pyridin-3-ylsulfonyl)amino]benzyl}amino)-N-methyl-1H-pyrazolo[4,3-c]pyridine-3-carboxamide]	135	25.9	6.1	123	32.9	–
